As usually defined, the IC50 is the point on the concentration scale where inhibition reaches its midpoint. A word on the Kd: it is a measure of binding affinity in units of concentration.

Structures are written as SMILES. Where two headings read alike, the source gives them in different places.

The text below walks through data of patent US20250186433A1, “ACSS2 INHIBITORS AND METHODS OF USE THEREOF” (EpiVario, Inc., priority 2017, published 2025).

The target of one experiment is T1, ACSS1 (Homo sapiens, UniProt Q9NUB1).
T1 construct: purchased Cusabio, China
T1 sequence (Q9NUB1 38-689): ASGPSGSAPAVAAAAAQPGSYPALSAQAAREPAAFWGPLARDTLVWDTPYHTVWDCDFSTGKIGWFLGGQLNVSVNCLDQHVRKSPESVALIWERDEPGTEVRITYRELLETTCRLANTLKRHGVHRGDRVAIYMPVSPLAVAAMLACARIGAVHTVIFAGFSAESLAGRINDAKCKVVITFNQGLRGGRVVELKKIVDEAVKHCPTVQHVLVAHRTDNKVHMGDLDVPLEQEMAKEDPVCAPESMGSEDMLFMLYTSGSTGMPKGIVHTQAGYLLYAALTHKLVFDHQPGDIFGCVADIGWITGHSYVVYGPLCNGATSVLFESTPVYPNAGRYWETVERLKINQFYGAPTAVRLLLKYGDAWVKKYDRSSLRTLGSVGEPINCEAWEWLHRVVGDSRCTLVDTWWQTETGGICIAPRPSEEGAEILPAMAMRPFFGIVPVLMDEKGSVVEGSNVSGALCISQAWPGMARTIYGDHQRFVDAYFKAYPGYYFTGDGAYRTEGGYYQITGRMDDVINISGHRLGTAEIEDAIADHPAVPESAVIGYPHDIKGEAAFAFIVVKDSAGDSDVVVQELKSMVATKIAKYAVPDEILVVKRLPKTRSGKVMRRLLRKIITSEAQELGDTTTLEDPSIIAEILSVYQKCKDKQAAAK
Put plainly: Acyl-CoA synthetases selectivity panel: ACSS1. The format is biochemical. As to conditions: human recombinant protein, substrate acetate, AMP readout by HPLC; read-out: HPLC based activity assays IC50 (UM) ACSS1. The text has this: The biochemical assays for testing the selectivity of the compounds according to this invention, were done using human recombinant proteins (Cusabio, China). The readout of the assays was AMP levels, the […] of the reactions, by HPLC method. The acyl substrates (Sigma-Aldrich) of the assays were as followed: ACSS1/ACSS2—Acetate, AACS-Acetoacetyl, ACSF2—Octanoate and ACSL5—Palmitate. The protein in this panel include ACSS1, the closest homolog of ACSS2, in addition to representative short/medium/long chain acyl-CoA syntatases.

The next experiment has as its target ACSS2 (Homo sapiens, UniProt Q9NR19). Description: Binding to recombinant ACSS2 protein by Label Free MST. The following applies: for Kd: read-out: Kd [uM] Fluorescence. The text has this: Binding of ACSS2 inhibitor to recombinant ACSS2 protein by Label Free MST. MicroScale Thermophoresis (MST) is an optical fluorescent method that records the changes in fluorescence of a target molecule as a function of temperature and the concentration of the cognate ligand molecule. The binding of small-molecules to the target proteins lead to changes in the fluorescence that can be measured and translated into binding Kd.

ACSS2, sequence (Q9NR19 whole entry): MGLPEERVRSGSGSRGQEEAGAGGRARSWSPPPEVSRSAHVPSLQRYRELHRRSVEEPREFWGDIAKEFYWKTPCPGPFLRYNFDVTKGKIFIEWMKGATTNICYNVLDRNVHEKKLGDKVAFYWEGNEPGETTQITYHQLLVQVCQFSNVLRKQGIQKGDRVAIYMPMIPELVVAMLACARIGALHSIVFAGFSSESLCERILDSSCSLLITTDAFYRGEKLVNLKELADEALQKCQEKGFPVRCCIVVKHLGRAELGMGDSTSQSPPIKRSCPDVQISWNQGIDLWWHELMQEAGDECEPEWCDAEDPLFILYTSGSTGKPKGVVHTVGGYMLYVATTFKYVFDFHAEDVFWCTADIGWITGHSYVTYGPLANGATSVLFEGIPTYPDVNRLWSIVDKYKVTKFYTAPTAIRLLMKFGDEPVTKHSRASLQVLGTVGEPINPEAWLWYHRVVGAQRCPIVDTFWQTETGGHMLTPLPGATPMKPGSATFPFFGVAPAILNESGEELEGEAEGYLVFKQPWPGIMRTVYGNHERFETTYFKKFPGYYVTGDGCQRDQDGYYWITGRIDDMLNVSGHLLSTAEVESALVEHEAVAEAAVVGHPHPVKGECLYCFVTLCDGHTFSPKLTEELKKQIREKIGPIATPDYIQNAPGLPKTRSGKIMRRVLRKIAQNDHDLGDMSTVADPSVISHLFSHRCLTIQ

As for `COC(=O)c1cccc(N2N=C(C)C(C(=O)Nc3cccc(C(C)(F)F)c3)C2=O)c1` (stereo not drawn) [compound 261, methyl 3-(4-((3-(1,1-difluoroethyl)phenyl)carbamoyl)-3-methyl-5-oxo-4,5-dihydro-1H-pyrazol-1-yl)benzoate], at ACSS1, the IC50 lay in the range of 1000 to 10000 nM. Besides, the Kd on ACSS2 (Buffer A (no ATP, no CoA)) was 0.46 ± 0.21 µM; at ACSS2 (Buffer B (+ATP), 0.3 mM ATP) it was 0.03 ± 0.01 µM; at ACSS2 (Buffer C (+ATP, +CoA), 0.3 mM ATP, 0.01 mM CoA), 0.04 ± 0.02 µM; at ACSS2 (Buffer D (+CoA), 0.01 mM CoA), 0.61 ± 0.17 µM. For the same molecule, the “reduction of binding Kd when ATP was added to the buffer” value at ACSS2 (Label Free MST) is on record as 10 fold.
